Experimental data: patent US8652463B1, “Dietary supplement to reduce the occurrence of migraines and treat their symptoms” (priority 2011, dated 2014)

Columns and labels:
migraine headaches = details: for effect of preventive on migraine frequency: Patient two, before the regimen, ELAVIL 75 mg orally at bedtime, prednisone brief rounds
acute migraine = experiment: Patient case reports: acute (rescue/abortive) migraine therapy; format: in vivo, human; details: for success for acute migraine: historically, before the regimen
[1] = Patient three, history before the regimen

CC(C)C[C@H](CN)CC(=O)O [LYRICA]
side effects of migraine preventive (migraine headaches; human, in vivo): fluid retention and confusion

CN(C)CCC=C1c2ccccc2CCc2ccccc21 [ELAVIL]
effect of preventive on migraine frequency (migraine headaches): did not reduce migraine frequency
side effects of migraine preventive (migraine headaches; human, in vivo): weight gain

botulinum toxin [BOTOX]
migraine remission / frequency (migraine headaches; human, in vivo): complete remission of migraines to once per month

CN[C@@H]1CCc2[nH]c3ccc(C(N)=O)cc3c2C1 [FROVA]
success for acute migraine (acute migraine; Patient one): moderate success
success as rescue drug (acute migraine; Patient one, while using the regimen): with success

CN(C)CCc1c[nH]c2ccc(Cn3cncn3)cc12 [MAXALT]
response for acute migraine rescue (acute migraine; [1]): poor response

CC(C)(C#N)c1cc(Cn2cncn2)cc(C(C)(C)C#N)c1 [ARMIDEX]
effect on migraines (adverse) (migraine headaches; human, in vivo): more frequent, disabling, and less responsive

CC(CN1c2ccccc2Sc2ccccc21)N(C)C (stereo not shown) [phenegran]
success for acute migraine (acute migraine; Patient one): moderate success

C[C@]12C=CC(=O)C=C1CC[C@@H]1[C@@H]2C(=O)C[C@@]2(C)[C@H]1CC[C@]2(O)C(=O)CO [prednisone]
effect of preventive on migraine frequency (migraine headaches): short-lived migraine reduction

O=C(c1ccccc1)c1ccc2n1CCC2C(=O)O (stereo not shown) [TORADOL]
response for acute migraine rescue (acute migraine; [1]): poor response
response to abortive therapy (acute migraine; human, in vivo, po): good response

CNS(=O)(=O)Cc1ccc2[nH]cc(CCN(C)C)c2c1 [IMITREX]
course of response for acute migraine rescue (acute migraine; [1]): worked well initially, but became ineffective
response for acute migraine rescue (acute migraine; [1]): poor response
response of migraines to acute therapy (acute migraine; Patient two, 100 mg orally, prior to breast cancer diagnosis, two to three migraines per month): responded well
response to rescue medication (acute migraine; Patient two, while using the regimen and ELAVIL): more responsive to a single dose

CC1(C)O[C@@H]2[C@@H](CO[C@@]3(COS(N)(=O)=O)OC(C)(C)O[C@@H]23)O1 [TOPAMAX]
migraine reduction and severity with preventive (migraine headaches; Patient one): poor migraine reduction and severity
effect of preventive on migraine frequency (migraine headaches): did not reduce migraine frequency
side effects of migraine prevention (migraine headaches; human, in vivo): cognitive dysfunction
side effects of migraine preventive (migraine headaches; human, in vivo): alopecia
tolerance of migraine preventive (migraine headaches; human, in vivo): poor tolerance

Clc1ccc2nsnc2c1NC1=NCCN1 [ZANAFLEX]
side effects of migraine prevention (migraine headaches; human, in vivo): cognitive dysfunction
